From US7572913B2, “4-substituted piperidine derivatives” (Bioaxone Therapeutique Inc., priority 2004, dated 2009)
Values joined by “and” are separate entries in the source; they are usually repeats but may differ in a detail not shown here. Identical values can stand only once. Like-named read-outs stand apart in the source and are kept apart here.

Key:
ROCKII = target: T1, ROCKII (Rattus norvegicus, UniProt Q62868); test: ROCKII inhibition at a single concentration of 10 μM (selectivity histogram, Table 3); format: biochemical; conditions: for Percent Rock inhibition at 10 micromolar: Table 3, compound at 10 micromolar
T1 construct: purchased Upstate Ltd. (United Kingdom)
Procedure: Compounds of this invention can be evaluated for kinase inhibition activity as solutions in 100% DMSO at a concentration of 10 μM added to GSK3β(h) and to ROCK-II(r) with ATP present at a concentration of 100 μM. Samples of compounds of this invention can be tested at 10 μM.
The data can be presented as relative ROCK kinase inhibition at a reference compound concentration of 3.5 uM and at 35 μM, wherein 0 signifies complete inhibition under the ATP concentration tested (100 μM). ROCK kinase activity is the opposite of ROCK kinase inhibition, and is compared with the GSKB kinase activity.
(§1) Experiments were done in duplicate. ATP was present at 100 μM in the assay.
(§2) The values were expressed in a percentage of inhibition of each kinase. Experiments were done in duplicate. ATP was present at 100 μM in the assay.
(§3) Percent net neurite outgrowth at 35 micromolar concentrations are presented in Table 3 together with percent Rock inhibition at 10 micromolar for three compounds designated BA-1043, BA-1049, and BA-1050. […] It should be noted that percent Rock activity is equal to 100% minus percent Rock inhibition.

NG108 cells = test: Bioassay of neurite outgrowth in NG108 cells on plastic; format: cell-based; conditions: compound at 35 micromolar
From the text: as §3

PRK2 = PRK2 (Homo sapiens, UniProt Q16513); conditions: FIG. 5; compound at 10 μM; ATP 100 μM; duplicate
Procedure: Samples can also be tested at 10 μM against CDK5/p35(h), JNK1α1(h), MAPK1(h), PKA(b), PKCα(h), PRK2(h), ROCK-II(r), […], PKBα(h), and Fyn(h) with ATP at 100 μM.
as §2

Caco-2 cells = conditions: for B − A/A − B Papp ratio: Caco-2 monolayer
Procedure: After incubation, samples are taken from the apical and basolateral compartment and the concentration of the test compound is determined by LCMS (liquid chromatography/mass spectroscopy).
Stock cultures are sub-cultured every 7 days when cells have reached 80-90% confluency. Studies are conducted with Caco-2 cells, used between passage 21 to 40. Cells are plated on Transwell™ inserts at a density of 1×10^4 cells/well in 24-well culture plates. Cells are incubated at 37° C. under 5% CO2 atmosphere, and media (MEM Earles medium containing 10% FBS, 0.1 mM non-essential amino acids and 1 mM sodium pyruvate) are changed 3 times per week. Cells are used for permeability studies between 20 to 22 days after seeding. On the day of the assay, cell monolayers are washed 3 times. Each wash consists of aspirating liquid from the apical (A) and basolateral (B) sides, and adding 0.5 and 1 mL, respectively, of fresh Dulbecco's phosphate-buffered saline with Mg^2+ and Ca^2+, pH 7.4 (PBS). After the final wash, a volt-ohm-meter is used to determine the trans-epithelial electrical resistance (TEER), a measure of the integrity of the monolayer. Cells are not be used if the TEER values are less than 200 ohms/cm^2. Working solutions of the test compounds are prepared in PBS. […] For each test compound and standard, apical to basolateral (A to B) and basolateral to apical (B to A) transport is measured. The final volume on the basolateral side is 1 mL; the final volume on the apical side is 0.3 mL. The test compound working solution or radiolabeled standard solution is added to the ‘donor’ side. Blank buffer is added to the ‘acceptor’ side. […] The permeability of each compound and control is measured by sampling 200μL of medium from the acceptor compartment at time zero and following 60 minutes of incubation. […] A 3 mL aliquot of liquid scintillant is added to the vials, and disintegrations per minute (dpm) are determined in a liquid scintillation counter. […] The permeability of Lucifer Yellow is measured by sampling 100 μL of medium from the basolateral compartment following 60 minutes of incubation. […]

HUVEC cells [1] = test: Endothelial cell migration, Boyden chamber with VEGF; format: cell-based, human; conditions: 50 μM; 20 h; 10 ng/mL VEGF; fibronectin-coated transwells
Procedure: A common assay uses Boyden or Transwell chambers, a compartmentalized cell cultures system. Cells are plated in the upper compartment of the Transwell chamber, and the ability of a compound under evaluation to block cell migration through, for example the pores of a Fluoroblok membrane, to the bottom compartment is measured. […] Typically, a chemoattractant is added to the bottom well or compartment. In the case of endothelial cells, a useful chemoattractant is vascular endothelial growth factor (VEGF). […] Experiments can be performed in 24-well plates (individual insert or multiwell insert) or in 96-multiwell insert plates with appropriate correction for volume and cell density. […] Following incubation with the cell dye, fluorescence from invaded cells is read in a fluorescence plate reader with bottom reading capabilities at excitation/emission wavelengths of 485/530 nm without further manipulation. Only those labeled cells that have migrated through the pores of the Fluoroblok membrane will be detected.
The data may be expressed as either fluorescent units (FU) or as “fold migration”, i.e., the FU value of the cells migrating through the fibronectin coated insert membrane in response to a chemoattractant with inhibitor relative to the FU value of a control, i.e., without inhibitor. […]

ROCK-II(h) = ROCK-II(h) (Homo sapiens, UniProt O75116); conditions: for % Control (single replicate) / Activity (% Control): ATP 100 micromolar; for % Control (single replicate): individual replicates; for Activity (% Control): mean of duplicate
Procedure: ROCK II (purchased from Upstate, Lake Placid, N.Y.) activity is assayed in 20 mM MOPS, pH 7.2, 25 mM β-glycerophosphate, 5 mM EGTA, 1 mM sodium orthovanadate, 1 mM dithiothreitol with dephosphorylated myelin basic protein (MBP, 0.2 mg/ml) as substrate with or without addition of a reference Rho kinase inhibitor. Activity assay reactions are performed for 30 min at 30° C. in 50 μl volumes using radiolabeled [32P] ATP (from Perkin-Elmer). The concentrations of ATP and magnesium chloride are 100 μM and 75 mM respectively. Assay reactions are initiated by adding Mg2+/ATP to each reaction mixture and are terminated by spotting 40 μl of each reaction mixture onto phosphocellulose paper (P81 paper, Whatman), followed by washes in 0.75% phosphoric acid to remove ATP followed by drying. The spotted paper is placed in scintillation cocktail and counted to measure 32P incorporation. Radioactivity is measured using a scintillation counter. Percent activity for a particular concentration of inhibitor is calculated as 100*(a−b)/(c−b), where a=cpm (enzyme+inhibitor), b=cpm (autophosphorylation of substrate and kinase) and c=cpm (enzyme−inhibitor). A dose-response chart is prepared for each inhibitor compound evaluated, then an IC50 (inhibitor concentration at 50% inhibition) determination is made as a measure of the potency of the compound as an inhibitor of Rho kinase. A plot of the log of concentration of test inhibitor compound (x axis) and the percent inhibition of kinase activity (y axis) is prepared. […] Experiments are done in duplicate or triplicate. ROCK II and dephosphorylated myelin basic protein (MBP) can be purchased from Upstate (Lake Placid, N.Y.). ATP is from Boehringer Mannheim and [γ-32P] ATP is from Perkin-Elmer. ROCK-II(h) is human ROCK-II.
Kinase inhibitors frequently compete with ATP binding and are ATP-competitive. Drug concentration required for 50% inhibition (IC50) depends on the concentration of ATP used in the assays.
An IC50 value for a compound of this invention can be determined from a plot of concentration of compound of this invention versus kinase activity of ROCK-II(h). The IC50 value for a compound of this invention can be expressed in units of micromolar, nanomolar, picomolar, and the like.
In the table, the concentration of the rho kinase inhibitor is micromolar, CPM is counts per minute, and SD is standard deviation. The rho kinase inhibitor activity was tested in duplicate. In each case, the kinase activity is expressed as a percentage of that in control incubations. IC50 values were derived by PRISM at Upstate. ATP concentration was 100 micromolar.

HEC-1B cells = conditions: 72 hours incubation; different concentrations; Alamar Blue
Procedure: For this assay, cells are thawed and passaged at least one time before the experiment. Cells are grown in a culture dish in media supplemented with serum and supplements appropriate for the test cell line. When they reach logarithmic growth, the cells are trypsinized to detach them from the culture dish and are counted. The cell pellet is resuspended and adjusted to 2-5×10^4 cells/ml. A 96-well microplate is used for the experiment and cells are plated at a density of 1000 to 5000 cells/well in 100 μL of growth media. The seeding density is noted to ensure that the cells in the control wells are not overgrown after the total incubation time. […] At the end of the incubation period, the fluorescence intensity is read with a 96-well microplate reader (excitation 530-560 nm; emission 590 nm), with bottom reading. The fluorescence generated in the AlamarBlue™ assay can be stopped and stabilized by the addition of 3% SDS. […]
For each concentration of test article, a % growth is calculated using the following equation, wherein • T0=fluorescence units at the time of test article addition (time 0) • C=fluorescence units for control (no test article) • Ti=fluorescence unit for test article (different dilution)
Cadmium sulfate hydrate (CAD) was used as a positive control. Following treatment, the rate of proliferation was measured using the Alamar Blue assay.

human plasma proteins = conditions: for Bound (%) / Unbound (%): equilibrium dialysis 24 h, 37° C.
From the text: Plasma or serum protein binding assays using the equilibrium dialysis method are used to determine drug availability. Equilibrium dialysis studies using a 96-well microplate format or using conventional 2-chambered Teflon dialysis cells can be used to determine plasma or serum binding, and LC/MS/MS analysis is used for test compound quantification. The Teflon dialysis cell system is commonly used to determine the time to reach equilibrium, the fraction of a compound bound and unbound to plasma proteins and the effect of concentration on the extent of binding. Test compound quantification is performed by HPLC or LC/MS/MS analysis.
To perform equilibrium dialysis the following procedures can be used. To 0.990 mL of thawed plasma (37° C.), a 10 μL aliquot of the stock solutions is added for test compound concentrations of 35 μM. An appropriate volume of buffer (Dulbecco's phosphate buffered saline, pH 7.4) is spiked with each test compound at a concentration of 35 μM. Duplicate aliquots (130 μL) of each spiked plasma and buffer solution are collected prior to dialysis into labeled 1.5 mL polypropylene tubes and stored frozen at −40° C. […] Equilibrium dialysis is performed in a 96-well Teflon dialysis unit. Each well of the unit consists of two chambers separated by a vertically aligned dialysis membrane (regenerated cellulose) with a molecular weight cut-off of 12-14 KDa. The equilibrium dialysis membranes are first pre-soaked in deionized water for 30 min, then soaked in 20% ethanol for 20 min, followed by rinsing twice with deionized water. The equilibrium dialysis apparatus is assembled according to the manufacturer's directions. One chamber of each well is filled with 150 μL of blank buffer (to prevent membrane dehydration). Aliquots (150 μL) of spiked plasma or spiked buffer are added to the opposing chamber in each well. The top of the plate is sealed with an adhesive sealing film to prevent evaporation and to maintain constant pH during incubation. All dialysis experiments with the test compounds and standards are assessed using duplicate samples. The dialysis apparatus is incubated at 37° C. in an orbital shaker/incubator (Lab-Line Enviro) samples are collected following 24 hours of incubation. Samples containing the test compounds are stored frozen at −70° C. until analysis. Samples (100 μL) containing the radiolabels are added and mixed by vortex. The disintegrations per minute (dpm) in each vial are measured with a liquid scintillation counter. The fraction of each test compound and standard unbound (fu) to human serum proteins is calculated according to the following equation:
[formula] wherein Cbuffer and Cplasma represent the concentration of the compound measured in the buffer and plasma chambers, respectively, following dialysis. The fraction bound (fb) to the plasma proteins is determined as: 1−fu.

ROCKI = ROCKI (Homo sapiens, UniProt Q13464); conditions: ATP 100 μM, duplicate
Procedure: as §1, §2

[2] = tested on: Caki cells (human renal cancer line) subcutaneous tumors; conditions: 50 μL PBS with 40 μM E-23a injected into tumor every day for two weeks; 6 mice; vehicle control 304%
Procedure: An in vivo model to test anti-proliferative activity of test compounds is a subcutaneous (s.c.) tumor model. In this model, human cancer cells are seeded into mice by a subcutaneous injection. Typically immune-compromised mouse cell lines are used, such as CD-1 nude mice, to prevent a graft rejection response. The test compound is administered as a formulation in a pharmaceutically acceptable vehicle suitable for injection use, such as isotonic phosphate buffered saline (PBS), by injection into the tumor. Different dosing schedules can be tested and compared with mice receiving injection of vehicle control. Before implantation into an animal, tumor cells are expanded in their specific tissue culture medium. Medium is changed 2 to 3 times per week. […] The tumor growth is monitored twice a week. Tumor volume is determined with a digital caliper and calculated using the formula: width^2×length×0.5. The length is taken at the basis of the tumors between the two most distant points of the tumor mass, whereas the width is measured right-angled to the length. […] Tumor volume and animal body weight are recorded twice a week.
Caki cells, which are a human renal cancer line were grown in tissue culture. […] Tumors were evaluated after 2 weeks of treatment after the final injection.

HUVEC cells [3] = test: HUVEC capillary tube formation on ECMatrix; format: cell-based, human; conditions: for relative amount of tube formation: 15,000 HUVEC cells on ECMatrix, 6-8 h
From the text: HUVEC cells will form capillary tubes when plated on protein substrates composed of proteins found in the extracellular matrix. Typical substrates useful for experiments with HUVEC cells are Matrigel, fibronectin or collagen. Matrigel is composed of several proteins that make up the extracellular matrix. Extracelluar matrix substrates can be plated in tissue culture dishes as 3-dimensional cell culture substrates. Another reagent that can be used as a substrate is ECMatrix™ (Chemicon International, Temecula, Calif.), a reconstituted basement membrane matrix of proteins derived from the Engelbreth Holm-Swarm (EHS) mouse tumor. This substrate gels rapidly at 22-35° C. Thus, ECMatrix™ is thawed overnight on ice or in +4° C. A 96-well plate is pre-chilled, and 100μl of the ECMatrix solution is added to each well. The plate is incubated at 37° C. for at least one hour to allow the matrix solution to solidify. The HUVEC cells are harvested and resuspended in a standard cell growth media supplemented with endothelial cell growth supplements. The presence of serum (0.5-10%) is optional. EGM (endothelial cell growth media) can be used. The HUVEC cells are plated at a density of 5×10^3 to 1×10^4 cells per well onto the surface of the polymerized ECMatrix™, and then incubated overnight in a tissue-culture incubator. Cellular network structures are fully developed by 12 to 18 h, with the first signs apparent after 5-6 h. After 24 h, the cells begin to undergo apoptosis. To study the effect of anti-angiogenic factors, they can be added at the time of cell plating. Optional tissue culture vary depending on the cell type, age, and media growth conditions. The tubes are inspected under an inverted light microscope at 40×-200× magnification. Since there is a lack of contrast of the cellular networks, the cultures can be stained with any of the common cell staining procedures such as Diff-Quick or Wright-Giemsa or crystal-violet. The total capillary tube length measurement method is used to quantify the results. The total length of all the capillary tubes in several (3-10) view-fields is measured by Northern Eclipse software.
Photos are representative of 5 separate experiments.
Tranilast is used as a positive control. For this experiment, 15,000 HUVEC cells were plated on ECMatrix™ and incubated for 6-8 h alone before quantification. Results are presented as mean± SEM for one experiment analyzed in duplicate. […] It is used as a positive control.

MSK1 = MSK1 (Homo sapiens, UniProt O75582); conditions: FIG. 5; compound at 10 μM; ATP 100 μM; duplicate
Procedure: as §2

[4] = patients treated for stroke; cited from earlier work

T1 sequence (Q62868 whole entry): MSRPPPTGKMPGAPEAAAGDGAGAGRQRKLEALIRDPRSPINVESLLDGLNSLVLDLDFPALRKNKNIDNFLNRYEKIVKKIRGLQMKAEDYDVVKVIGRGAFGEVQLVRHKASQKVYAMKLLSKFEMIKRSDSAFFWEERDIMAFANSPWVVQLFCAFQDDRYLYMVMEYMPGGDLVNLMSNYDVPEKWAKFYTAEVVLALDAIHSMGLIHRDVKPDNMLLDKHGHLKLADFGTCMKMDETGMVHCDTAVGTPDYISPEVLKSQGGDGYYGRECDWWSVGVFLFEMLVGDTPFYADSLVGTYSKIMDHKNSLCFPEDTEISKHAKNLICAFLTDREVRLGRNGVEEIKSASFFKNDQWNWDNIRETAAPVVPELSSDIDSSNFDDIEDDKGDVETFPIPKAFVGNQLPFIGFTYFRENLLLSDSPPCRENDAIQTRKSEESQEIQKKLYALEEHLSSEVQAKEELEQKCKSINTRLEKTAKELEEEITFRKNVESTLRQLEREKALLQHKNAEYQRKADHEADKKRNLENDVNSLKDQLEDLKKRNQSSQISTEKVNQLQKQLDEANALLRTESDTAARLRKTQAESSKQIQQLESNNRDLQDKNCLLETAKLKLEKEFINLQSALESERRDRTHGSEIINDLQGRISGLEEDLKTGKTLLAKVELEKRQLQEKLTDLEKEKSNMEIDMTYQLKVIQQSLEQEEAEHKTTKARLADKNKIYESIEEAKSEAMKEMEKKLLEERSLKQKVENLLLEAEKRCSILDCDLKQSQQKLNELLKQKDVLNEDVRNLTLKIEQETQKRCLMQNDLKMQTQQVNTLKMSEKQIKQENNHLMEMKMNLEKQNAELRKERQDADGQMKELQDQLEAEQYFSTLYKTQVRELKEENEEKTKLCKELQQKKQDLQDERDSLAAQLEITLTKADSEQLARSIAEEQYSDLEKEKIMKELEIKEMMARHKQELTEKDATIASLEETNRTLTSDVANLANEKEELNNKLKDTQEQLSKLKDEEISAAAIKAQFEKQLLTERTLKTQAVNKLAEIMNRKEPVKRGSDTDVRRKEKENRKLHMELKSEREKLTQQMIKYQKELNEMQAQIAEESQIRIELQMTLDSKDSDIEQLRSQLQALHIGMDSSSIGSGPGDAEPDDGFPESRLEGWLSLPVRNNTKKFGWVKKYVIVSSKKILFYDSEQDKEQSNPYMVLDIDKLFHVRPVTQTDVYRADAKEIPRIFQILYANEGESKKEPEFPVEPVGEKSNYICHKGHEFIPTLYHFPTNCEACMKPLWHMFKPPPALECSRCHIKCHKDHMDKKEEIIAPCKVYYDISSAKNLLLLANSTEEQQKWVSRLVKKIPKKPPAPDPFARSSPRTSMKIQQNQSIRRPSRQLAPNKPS
Sequence of ROCK-II(h) (O75116 whole entry): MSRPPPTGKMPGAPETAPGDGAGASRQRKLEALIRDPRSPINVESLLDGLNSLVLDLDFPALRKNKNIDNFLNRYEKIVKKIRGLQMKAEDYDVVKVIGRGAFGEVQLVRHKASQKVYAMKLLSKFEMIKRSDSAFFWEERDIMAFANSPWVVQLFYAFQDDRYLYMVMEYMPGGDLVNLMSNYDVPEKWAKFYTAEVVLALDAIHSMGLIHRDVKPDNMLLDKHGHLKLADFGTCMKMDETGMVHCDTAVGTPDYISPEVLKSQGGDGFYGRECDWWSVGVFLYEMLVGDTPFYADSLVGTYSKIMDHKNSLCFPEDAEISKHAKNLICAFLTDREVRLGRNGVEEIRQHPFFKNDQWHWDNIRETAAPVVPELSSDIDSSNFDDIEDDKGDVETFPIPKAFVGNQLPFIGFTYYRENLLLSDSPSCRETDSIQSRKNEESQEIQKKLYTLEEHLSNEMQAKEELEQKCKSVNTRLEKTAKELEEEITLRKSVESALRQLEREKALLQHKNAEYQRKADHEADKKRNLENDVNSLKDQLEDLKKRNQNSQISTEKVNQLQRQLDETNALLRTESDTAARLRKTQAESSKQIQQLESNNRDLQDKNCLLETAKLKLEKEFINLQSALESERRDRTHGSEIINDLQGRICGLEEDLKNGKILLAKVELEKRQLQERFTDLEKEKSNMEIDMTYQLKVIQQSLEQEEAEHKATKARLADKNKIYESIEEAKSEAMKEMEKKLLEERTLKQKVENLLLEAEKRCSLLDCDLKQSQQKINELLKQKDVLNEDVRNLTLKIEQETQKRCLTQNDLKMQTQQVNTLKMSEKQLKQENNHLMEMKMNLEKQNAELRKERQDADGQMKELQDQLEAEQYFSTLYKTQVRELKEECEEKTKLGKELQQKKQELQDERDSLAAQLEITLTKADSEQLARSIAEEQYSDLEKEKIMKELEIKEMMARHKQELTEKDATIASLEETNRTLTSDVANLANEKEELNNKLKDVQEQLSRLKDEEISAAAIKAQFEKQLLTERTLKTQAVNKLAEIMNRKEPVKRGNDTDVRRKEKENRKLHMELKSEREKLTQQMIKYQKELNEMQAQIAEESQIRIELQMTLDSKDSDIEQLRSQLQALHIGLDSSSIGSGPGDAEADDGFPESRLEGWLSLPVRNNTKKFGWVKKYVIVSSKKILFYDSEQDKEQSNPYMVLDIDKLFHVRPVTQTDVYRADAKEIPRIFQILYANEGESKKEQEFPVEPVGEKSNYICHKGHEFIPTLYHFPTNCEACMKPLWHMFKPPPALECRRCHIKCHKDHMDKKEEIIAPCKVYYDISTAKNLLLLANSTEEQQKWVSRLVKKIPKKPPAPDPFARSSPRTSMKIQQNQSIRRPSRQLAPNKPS
Sequence of ROCKI (Q13464 whole entry): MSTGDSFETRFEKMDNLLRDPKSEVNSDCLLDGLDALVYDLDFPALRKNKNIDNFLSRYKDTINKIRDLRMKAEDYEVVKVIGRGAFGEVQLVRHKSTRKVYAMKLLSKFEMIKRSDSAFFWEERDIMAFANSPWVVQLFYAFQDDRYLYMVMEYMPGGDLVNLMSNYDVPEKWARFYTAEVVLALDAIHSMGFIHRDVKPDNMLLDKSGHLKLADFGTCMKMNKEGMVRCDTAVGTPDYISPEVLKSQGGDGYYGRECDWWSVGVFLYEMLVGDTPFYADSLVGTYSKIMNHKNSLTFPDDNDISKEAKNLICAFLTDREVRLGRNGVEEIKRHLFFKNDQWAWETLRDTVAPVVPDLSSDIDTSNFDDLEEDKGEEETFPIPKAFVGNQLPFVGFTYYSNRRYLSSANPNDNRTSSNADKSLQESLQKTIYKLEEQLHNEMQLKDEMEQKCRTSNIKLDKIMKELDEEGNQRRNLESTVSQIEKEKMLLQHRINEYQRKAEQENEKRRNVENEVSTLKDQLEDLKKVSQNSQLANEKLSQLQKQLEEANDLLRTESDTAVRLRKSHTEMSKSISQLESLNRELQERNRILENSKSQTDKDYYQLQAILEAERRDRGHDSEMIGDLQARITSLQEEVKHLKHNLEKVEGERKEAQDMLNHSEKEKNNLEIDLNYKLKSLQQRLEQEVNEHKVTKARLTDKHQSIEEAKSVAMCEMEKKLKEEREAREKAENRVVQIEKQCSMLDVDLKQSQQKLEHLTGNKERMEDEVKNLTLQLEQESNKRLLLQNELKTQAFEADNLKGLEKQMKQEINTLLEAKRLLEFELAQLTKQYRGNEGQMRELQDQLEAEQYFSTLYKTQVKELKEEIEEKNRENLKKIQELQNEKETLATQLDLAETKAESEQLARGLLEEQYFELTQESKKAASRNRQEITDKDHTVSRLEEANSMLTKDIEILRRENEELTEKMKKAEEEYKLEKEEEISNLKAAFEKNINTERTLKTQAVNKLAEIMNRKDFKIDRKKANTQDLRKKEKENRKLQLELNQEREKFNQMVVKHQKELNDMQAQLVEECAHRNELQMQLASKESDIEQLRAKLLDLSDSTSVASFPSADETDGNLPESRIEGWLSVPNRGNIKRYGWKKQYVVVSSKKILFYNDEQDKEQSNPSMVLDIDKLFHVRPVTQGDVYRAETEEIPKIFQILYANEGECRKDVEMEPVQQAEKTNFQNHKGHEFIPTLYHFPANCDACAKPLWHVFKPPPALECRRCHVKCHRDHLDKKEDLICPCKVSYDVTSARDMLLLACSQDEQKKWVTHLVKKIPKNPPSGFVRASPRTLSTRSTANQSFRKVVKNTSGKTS
Sequence of MSK1 (O75582 whole entry, species assumed): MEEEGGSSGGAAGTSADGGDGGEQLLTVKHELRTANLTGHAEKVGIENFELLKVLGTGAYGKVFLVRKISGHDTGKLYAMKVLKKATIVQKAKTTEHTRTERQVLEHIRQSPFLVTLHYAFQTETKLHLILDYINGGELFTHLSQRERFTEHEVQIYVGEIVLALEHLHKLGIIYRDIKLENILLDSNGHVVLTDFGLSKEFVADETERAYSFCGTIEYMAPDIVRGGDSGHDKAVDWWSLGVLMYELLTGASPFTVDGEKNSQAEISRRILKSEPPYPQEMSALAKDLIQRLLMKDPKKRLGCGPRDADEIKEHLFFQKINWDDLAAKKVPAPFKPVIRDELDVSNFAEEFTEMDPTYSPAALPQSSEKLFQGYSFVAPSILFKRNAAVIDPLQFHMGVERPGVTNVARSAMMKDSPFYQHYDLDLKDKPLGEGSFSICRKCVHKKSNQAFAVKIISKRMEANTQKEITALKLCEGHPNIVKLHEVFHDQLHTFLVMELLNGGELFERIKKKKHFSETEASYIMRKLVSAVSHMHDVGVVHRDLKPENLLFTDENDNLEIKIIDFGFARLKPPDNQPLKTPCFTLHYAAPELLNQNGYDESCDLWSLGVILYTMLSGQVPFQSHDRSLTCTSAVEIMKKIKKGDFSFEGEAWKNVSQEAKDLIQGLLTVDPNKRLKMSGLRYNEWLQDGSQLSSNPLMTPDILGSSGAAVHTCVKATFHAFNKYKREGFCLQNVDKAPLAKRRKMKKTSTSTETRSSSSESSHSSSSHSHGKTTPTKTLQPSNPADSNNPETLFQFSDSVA

CCCC(N)C1CCN(S(=O)(=O)c2cccc3cnccc23)CC1.Cl.Cl (racemic) [BA-1050, (R,S)-N-(5″-isoquinolinesulfonyl)-4-[butan-1′-amino]piperidine dihydrochloride]
Percent Rock inhibition at 10 micromolar (ROCKII): 79%
Percent Net Neurite Outgrowth at 35 micromolar (NG108 cells): 20.2%

CC(N)C1CCN(S(=O)(=O)c2cccc3cnccc23)CC1.Cl.Cl (racemic) [E-23a, (R,S)-N-(5″-isoquinolinesulfonyl)-4-[ethan-1′-amino]piperidine dihydrochloride]
percentage of inhibition of ROCKII (ROCKII; FIG. 5, compound at 10 μM, ATP 100 μM, duplicate): 83%
Percent Rock inhibition at 10 micromolar (ROCKII): 97%
percentage of inhibition of PRK2 (PRK2): 52%
B − A/A − B Papp ratio (Caco-2 cells): 1.31
permeability (in words) (Caco-2 cells; Caco-2 permeability assay): good permeability
migration, % of the amount observed with Ctl+VEGF (HUVEC cells [1]): approximately 40%
% Control (single replicate) (ROCK-II(h); BA-1049 0.01 μM, dihydrochloride): 96 % Control and 104 % Control
Activity (% Control) (ROCK-II(h); BA-1049 0.01 μM): 100 % Control
% Control (single replicate) (ROCK-II(h); BA-1049 0.03 μM, dihydrochloride): 109 % Control and 86 % Control
Activity (% Control) (ROCK-II(h); BA-1049 0.03 μM): 98 % Control
% Control (single replicate) (ROCK-II(h); BA-1049 0.1 μM, dihydrochloride): 86 % Control and 102 % Control
Activity (% Control) (ROCK-II(h); BA-1049 0.1 μM): 94 % Control
% Control (single replicate) (ROCK-II(h); BA-1049 0.3 μM, dihydrochloride): 62 % Control and 74 % Control
Activity (% Control) (ROCK-II(h); BA-1049 0.3 μM): 68 % Control
% Control (single replicate) (ROCK-II(h); BA-1049 1 μM, dihydrochloride): 45 % Control and 50 % Control
Activity (% Control) (ROCK-II(h); BA-1049 1 μM): 48 % Control
% Control (single replicate) (ROCK-II(h); BA-1049 3 μM, dihydrochloride): 25 % Control and 27 % Control
Activity (% Control) (ROCK-II(h); BA-1049 3 μM): 26 % Control
% Control (single replicate) (ROCK-II(h); BA-1049 10 μM, dihydrochloride): 8 % Control and 16 % Control
Activity (% Control) (ROCK-II(h); BA-1049 10 μM): 12 % Control
% Control (single replicate) (ROCK-II(h); BA-1049 30 μM): 4 % Control
Activity (% Control) (ROCK-II(h); BA-1049 30 μM): 4 % Control
% Control (single replicate) (ROCK-II(h); BA-1049 100 μM, dihydrochloride): 0 % Control and 5 % Control
Activity (% Control) (ROCK-II(h); BA-1049 100 μM): 3 % Control
IC50 (ROCK-II(h); read-out: IC50, inhibition of ROCK-II(h), ATP 100 μM, duplicate, derived by PRISM): 0.791 µM
proliferation of HEC-1B cells (in words) (HEC-1B cells): reduced proliferation
availability in plasma (in words) (human plasma proteins; equilibrium dialysis): relatively available in the unbound form
Bound (%) (human plasma proteins): 7.26%
Unbound (%) (human plasma proteins): 92.7%
percentage of inhibition of ROCK I (ROCKI; FIG. 5, compound at 10 μM): 31%
IC50 (ROCKI; read-out: IC50, inhibition of ROCKI): 20.6 µM
mean tumor size increase, % of initial tumor volume [2]: approximately 156 % of initial tumor volume
Percent Net Neurite Outgrowth at 35 micromolar (NG108 cells): 39.0%
relative amount of tube formation (HUVEC cells [3]; 10 μM): approximately 40 % relative to control
relative amount of tube formation (HUVEC cells [3]; 50 μM): approximately 35 % relative to control
HUVEC tube formation relative to control (in words) (HUVEC cells [3]; E-23a 10 and 50 μM): substantially reduced
percentage of inhibition of MSK1 (MSK1): 43%

CC(C)NC[C@H](O)COc1cccc2ccccc12 [(S)-Propranolol, reference compound]
Bound (%) (human plasma proteins): 91.3%
Unbound (%) (human plasma proteins): 8.67%

CN(N)C1CCN(S(=O)(=O)c2cccc3cnccc23)CC1.Cl.Cl [BA-1043, N-(5′″-isoquinolinesulfonyl)-4-[N′-(1′-methyl)hydrazino]piperidine dihydrochloride]
Percent Rock inhibition at 10 micromolar (ROCKII): 61%
Percent Net Neurite Outgrowth at 35 micromolar (NG108 cells): 15.2%

CC1=NN(c2ccccc2)C(=O)C1 [Radicut, 3-methyl-1-phenyl-2-pyrazoline-5-one]
adverse effect in clinical use (in words) [4]: kidney toxicity

COc1ccc(C=CC(=O)Nc2ccccc2C(=O)O)cc1OC [Tranilast, N-(3′,4′-dimethoxycinnamoyl)anthranilic acid, reference compound]
migration, % of the amount observed with Ctl+VEGF (HUVEC cells [1]): approximately 30%
relative amount of tube formation (HUVEC cells [3]; 10 μg/mL): approximately 35 % relative to control
relative amount of tube formation (HUVEC cells [3]; 50 μg/mL): approximately 30 % relative to control

OC[C@@H](O)[C@@H](O)[C@H](O)[C@H](O)CO [[^3H]-Mannitol, reference compound]
B − A/A − B Papp ratio (Caco-2 cells): 0.81
